Key:
[1] = human
[2] = human; remark: listed apart in the source
[3] = human; remark: listed apart in the source
[4] = human; remark: listed apart in the source
[5] = human; remark: listed apart in the source
[6] = human; remark: listed apart in the source
[7] = human; remark: listed apart in the source
[8] = Highest frequency of moderate liver toxicity observed during clinical trials, expressed as a percentage. [column '% BIOL' in source]; details: human
[9] = human, serum
[10] = Highest frequency of acute liver toxicity observed during clinical trials, expressed as a percentage. [column '% AIGUE' in source]; details: human
[11] = human; remark: listed apart in the source
[12] = human; remark: listed apart in the source
[13] = human, serum; remark: listed apart in the source
[14] = human, serum, 4383 h
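Wherever Hepatotoxicity (association with vascular disease) is given: count of indexed literature references reporting vascular liver injury in humans, e.g. peliosis hepatitis, hepatic veno-occlusive disease or Budd-Chiari syndrome.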
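Wherever Hepatotoxicity (benign tumour) is given: value is a count of indexed literature references citing a benign tumour confirmed by histopathology.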
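Wherever Hepatotoxicity (choleostasis) is given: human cholestatic liver injury, shown by histopathology or by peak ALT or AST elevation over alkaline phosphatase ratio below 2, value counts indexed literature reports.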
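Wherever Hepatotoxicity (chronic liver disease) is given: chronic liver injury confirmed by histopathology or persistently raised serum aminotransferase activity beyond 6 months, value given as the count of indexed literature references.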
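Wherever Hepatotoxicity (cirrhosis) is given: value is a count of indexed literature references reporting cirrhosis confirmed by histopathology.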
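Wherever Hepatotoxicity (cytolytic) is given: human cytolytic liver injury, shown by histopathology or by a ratio above 5 of peak ALT or AST elevation to alkaline phosphatase elevation, value counts indexed references.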
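Wherever Hepatotoxicity (granulomatous hepatitis) is given: value is a count of indexed literature references reporting granulomatous liver disease confirmed by histopathology.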
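Wherever Hepatotoxicity (malignant tumour) is given: malignant tumour confirmed by histopathology, value gives the count of indexed literature references reporting it.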
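Wherever Hepatotoxicity (severe hepatitis) is given: human clinical data: severe hepatitis, meaning potentially life-threatening liver failure or clinically observed cases, the value counts how many indexed literature references report it.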
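Wherever Hepatotoxicity (steatosis) is given: steatosis confirmed by histopathology, value is the count of indexed references.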

| SMILES | Hepatotoxicity (steatosis) [1] | Hepatotoxicity (benign tumour) [2] | Hepatotoxicity (malignant tumour) [3] | Hepatotoxicity (choleostasis) [4] | Hepatotoxicity (granulomatous hepatitis) [5] | Hepatotoxicity (severe hepatitis) [6] | Hepatotoxicity (cirrhosis) [7] | Hepatotoxicity (moderate) [8] [%] | Hepatotoxicity (moderate) [9] | Hepatotoxicity (acute) [10] [%] | Hepatotoxicity (association with vascular disease) [11] | Hepatotoxicity (cytolytic) [12] | Hepatotoxicity (acute) [13] | Hepatotoxicity (chronic liver disease) [14] | Hepatotoxicity (severe hepatitis) ([6]; Liver) | Hepatotoxicity (moderate) ([8]; Liver) [%] | Hepatotoxicity (acute) ([10]; Liver) [%] | Hepatotoxicity (choleostasis) ([4]; Liver) | Hepatotoxicity (granulomatous hepatitis) ([5]; Liver) | Hepatotoxicity (cytolytic) ([12]; Liver) |
| --- | --- | --- | --- | --- | --- | --- | --- | --- | --- | --- | --- | --- | --- | --- | --- | --- | --- | --- | --- | --- |
| CC(C)NCC1CCc2cc(CO)c([N+](=O)[O-])cc2N1 (stereo not drawn) [OXAMNIQUINE] | 0 | 0 | 0 | 0 | 0 | 0 | 0 | 0 | 3 | 0 | 0 | 0 | 0 | 0 |  |  |  |  |  |  |
| NS(=O)(=O)c1cc2c(cc1Cl)NC(CC1CCCC1)NS2(=O)=O (stereo not drawn) [CYCLOPENTHIAZIDE] | 0 | 0 | 0 | 0 | 0 | 0 | 0 | 0 | 1 | 0 | 0 | 0 | 1 | 0 |  |  |  |  |  |  |
| Cc1cccc(Nc2ccncc2S(=O)(=O)NC(=O)NC(C)C)c1 [TORSEMIDE] | 0 | 0 | 0 | 0 | 0 | 0 | 0 | 0.6 | 1 | 0 | 0 | 0 | 0 | 0 |  |  |  |  |  |  |
| CCOc1cc(CC(=O)N[C@@H](CC(C)C)c2ccccc2N2CCCCC2)ccc1C(=O)O [REPAGLINIDE] | 0 | 0 | 0 | 0 | 0 |  | 0 |  | 1 |  | 0 | 0 | 0 | 0 | 0 | 1.5 | 0 |  |  |  |
| Cc1[nH]c(=O)c(C#N)cc1-c1ccncc1 [MILRINONE] | 0 | 0 | 0 | 0 | 0 | 0 | 0 | 2 | 2 | 0 | 0 | 0 | 0 | 0 |  |  |  |  |  |  |
| COC1=C(OC)C(=O)C(CCCCCCCCCCO)=C(C)C1=O [IDEBENONE] | 0 | 0 | 0 | 0 | 0 | 0 | 0 | 2.3 | 1 | 0 | 0 | 0 | 0 | 0 |  |  |  |  |  |  |
| CO/N=C(\C(=O)N[C@@H]1C(=O)N2C(C(=O)O)=C(CSc3nc(C)c(CC(=O)O)s3)CS[C@H]12)c1csc(N)n1 [CEFODIZIME] | 0 | 0 | 0 | 0 | 0 | 0 | 0 | 44.4 | 51 | 0 | 0 | 0 | 0 | 0 |  |  |  |  |  |  |
| CCOc1ccccc1OCC1CNCCO1 (stereo not drawn) [VILOXAZINE] | 0 | 0 | 0 |  |  |  | 0 |  | 2 |  | 0 |  | 1 | 0 | 0 | 0 | 0 | 0 | 0 | 1 |
| CO[C@@H](/C(C)=C/C=C/C(C)=C/c1coc(C)n1)[C@@H](C)[C@@H]1C[C@H](O)[C@@]2(C)O[C@@H]2/C=C/[C@@H](C)[C@H]2C[C@H](CC(=O)O2)C[C@@H]2O[C@H]2C(=O)O1 [RHIZOXIN] | 0 | 0 | 0 | 0 | 0 | 0 | 0 | 7.3 | 1 | 0 | 0 | 0 | 0 | 0 |  |  |  |  |  |  |
| CC(=O)Nc1c(I)c(NC(C)=O)c(I)c(C(=O)O)c1I [DIATRIZOIC ACID] | 0 | 0 | 0 | 0 | 0 | 0 | 0 | 0 | 1 | 0 | 0 | 0 | 0 | 0 |  |  |  |  |  |  |
| CN1C(CCl)Nc2cc(Cl)c(S(N)(=O)=O)cc2S1(=O)=O (stereo not drawn) [METHYCLOTHIAZIDE] | 0 | 0 | 0 | 0 | 0 | 0 | 0 | 0 | 1 | 0 | 0 | 0 | 0 | 0 |  |  |  |  |  |  |
| CN1CCN(c2c(F)cc3c(=O)c(C(=O)O)cn(CCF)c3c2F)CC1 [FLEROXACIN] | 0 | 0 | 0 | 0 | 0 | 0 | 0 | 8.3 | 13 | 0 | 0 | 0 | 0 | 0 |  |  |  |  |  |  |

Reference: ChEMBL document CHEMBL3137667, “[Drug-induced liver injury; fourteenth updated edition of the bibliographic database of liver injuries and related drugs]” (Gastroenterol Clin Biol, 2004)
